Source: PubChem BioAssay (NCI)
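Cells were grown in 96-well plates and exposed to each compound for 48 hours at five concentrations; endpoints were interpolated linearly between bracketing concentrations, or set to the highest concentration if not reached. Definition used: TGI = concentration required for complete inhibition of growth.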

Assays:
Test in all cases: NCI-60 cell line screen, 48 h
[1] = tested on: M19-MEL melanoma
[2] = tested on: NCI-H522 lung
[3] = tested on: SNB-78 CNS
[4] = tested on: HCT-116 colon
[5] = tested on: DMS 114 small cell lung
[6] = tested on: HOP-18 NSCLC
[7] = tested on: CAKI-1 renal
[8] = tested on: OVCAR-4 ovarian
[9] = tested on: UACC-257 melanoma
[10] = tested on: SF-268 CNS
[11] = tested on: NCI-H23 lung
[12] = tested on: TK-10 renal
[13] = tested on: EKVX NSCLC
[14] = tested on: SNB-75 CNS
[15] = tested on: OVCAR-3 ovarian
[16] = tested on: OVCAR-8 ovarian
[17] = tested on: ACHN renal
[18] = tested on: OVCAR-5 ovarian
[19] = tested on: CCRF-CEM leukemia
[20] = tested on: DLD-1 colon
[21] = tested on: MALME-3M melanoma
[22] = tested on: HCC-2998 colon
[23] = tested on: HOP-62 NSCLC
[24] = tested on: NCI-H460 lung
[25] = tested on: KM20L2 colon
[26] = tested on: HT29 colon
[27] = tested on: SK-OV-3 ovarian
[28] = tested on: 786-0 renal
[29] = tested on: LXFL 529 NSCLC
[30] = tested on: A498 renal
[31] = tested on: LOX IMVI melanoma
[32] = tested on: UACC-62 melanoma
[33] = tested on: SK-MEL-5 melanoma
[34] = tested on: HCT-15 colon
[35] = tested on: SF-295 CNS
[36] = tested on: U251 CNS
[37] = tested on: KM12 colon
[38] = tested on: SK-MEL-28 melanoma
[39] = tested on: NCI-H226 lung
[40] = tested on: SF-539 CNS
[41] = tested on: RXF 393 renal
[42] = tested on: XF 498 CNS
[43] = tested on: HL-60(TB) leukemia
[44] = tested on: SN12C renal
[45] = tested on: IGROV1 ovarian
[46] = tested on: K-562 leukemia
[47] = tested on: SR leukemia
[48] = tested on: COLO 205 colon
[49] = tested on: SW-620 colon
[50] = tested on: DMS 273 small cell lung
[51] = tested on: SK-MEL-2 melanoma
[52] = tested on: SNB-19 CNS
[53] = tested on: MOLT-4 leukemia
[54] = tested on: M14 melanoma
[55] = tested on: UO-31 renal
[56] = tested on: RPMI-8226 leukemia
[57] = tested on: A549 NSCLC
[58] = tested on: HOP-92 NSCLC

In the case of `Cc1c(Cl)ccc2c1NC(=O)C2(O)CC(=O)c1cccc2ccccc12` (stereo not drawn), the TGI [1] is reported as 37.6 µM, the TGI [2] is reported as > 100 µM and the TGI [3] is reported as > 100 µM. For the same compound, the TGI [4] was > 100 µM, the TGI [5] was 55.8 µM and the TGI [6] was > 100 µM. The TGI [7] was > 100 µM, the TGI [8] was 71.3 µM and the TGI [9] was > 100 µM. For the same compound, the TGI [10] was > 100 µM, the TGI [11] was > 100 µM and the TGI [12] was > 100 µM. The TGI [13] was > 100 µM, the TGI [14] was > 100 µM and the TGI [15] was > 100 µM. The TGI [16] was > 100 µM, the TGI [17] was > 100 µM and the TGI [18] was > 100 µM. The TGI [19] was > 100 µM, the TGI [20] was > 100 µM and the TGI [21] was > 100 µM. For the same compound, the TGI [22] was > 100 µM, the TGI [23] was > 100 µM and the TGI [24] was > 100 µM. The TGI [25] was > 100 µM, the TGI [26] was > 100 µM and the TGI [27] was > 100 µM. The TGI [28] was > 100 µM, the TGI [29] was > 100 µM and the TGI [30] was > 100 µM. For the same compound, the TGI [31] was > 100 µM, the TGI [32] was > 100 µM and the TGI [33] was > 100 µM. The TGI [34] was > 100 µM, the TGI [35] was > 100 µM and the TGI [36] was > 100 µM. For the same compound, the TGI [37] was > 100 µM, the TGI [38] was > 100 µM and the TGI [39] was > 100 µM. The TGI [40] was > 100 µM, the TGI [41] was > 100 µM and the TGI [42] was > 100 µM. The TGI [43] was 42.3 µM, the TGI [44] was > 100 µM and the TGI [45] was > 100 µM. For the same compound, the TGI [46] was > 100 µM, the TGI [47] was 63.1 µM and the TGI [48] was > 100 µM. For the same compound, the TGI [49] was > 100 µM, the TGI [50] was > 100 µM and the TGI [51] was > 100 µM. For the same compound, the TGI [52] was > 100 µM, the TGI [53] was > 100 µM and the TGI [54] was > 100 µM. The TGI [55] was > 100 µM, the TGI [56] was > 100 µM and the TGI [57] was > 100 µM.

With `N#CCCN(CCC#N)c1ccc(/C=C2\N=C(c3cc([N+](=O)[O-])ccc3Cl)N(S(=O)(=O)c3ccccc3)C2=O)cc1` the TGI [1] was > 100 µM, the TGI [2] was > 100 µM and the TGI [3] was > 100 µM. For the same compound, the TGI [4] was > 100 µM, the TGI [5] was > 100 µM and the TGI [6] was > 100 µM. For the same compound, the TGI [7] was > 100 µM, the TGI [8] was > 100 µM and the TGI [10] was > 100 µM. For the same compound, the TGI [11] was > 100 µM, the TGI [12] was > 100 µM and the TGI [13] was > 100 µM. The TGI [58] was > 100 µM, the TGI [15] was > 100 µM and the TGI [16] was > 100 µM. The TGI [17] was > 100 µM, the TGI [18] was > 100 µM and the TGI [19] was > 100 µM. The TGI [20] was > 100 µM, the TGI [21] was > 100 µM and the TGI [22] was > 100 µM. For the same compound, the TGI [23] was > 100 µM, the TGI [25] was > 100 µM and the TGI [27] was > 100 µM. The TGI [29] was > 100 µM, the TGI [31] was > 100 µM and the TGI [32] was > 100 µM. For the same compound, the TGI [33] was > 100 µM, the TGI [34] was > 100 µM and the TGI [35] was > 100 µM. For the same compound, the TGI [36] was > 100 µM, the TGI [37] was > 100 µM and the TGI [38] was > 100 µM. For the same compound, the TGI [39] was > 100 µM, the TGI [40] was > 100 µM and the TGI [41] was > 100 µM. For the same compound, the TGI [42] was > 100 µM, the TGI [44] was > 100 µM and the TGI [45] was > 100 µM. The TGI [46] was > 100 µM, the TGI [47] was > 100 µM and the TGI [48] was > 100 µM. For the same compound, the TGI [49] was > 100 µM, the TGI [50] was > 100 µM and the TGI [51] was > 100 µM. The TGI [52] was > 100 µM, the TGI [53] was > 100 µM and the TGI [55] was > 100 µM. The TGI [56] was > 100 µM and the TGI [57] was > 100 µM.

`Cc1cc(C)c(-n2c(-c3ccccc3)cs/c2=N\N=C2C=C(C(C)(C)C)C(=O)C(C(C)(C)C)=C2)c(C)c1` was tested, and the TGI [1] was > 100 µM, the TGI [2] was > 100 µM and the TGI [3] was > 100 µM. The TGI [4] was > 100 µM, the TGI [5] was > 100 µM and the TGI [6] was > 100 µM. The TGI [7] was > 100 µM, the TGI [8] was > 100 µM and the TGI [9] was > 100 µM. For the same compound, the TGI [10] was > 100 µM, the TGI [11] was > 100 µM and the TGI [12] was > 100 µM. The TGI [13] was > 100 µM, the TGI [58] was > 100 µM and the TGI [14] was 94.6 µM. For the same compound, the TGI [15] was > 100 µM, the TGI [16] was > 100 µM and the TGI [17] was > 100 µM. The TGI [18] was > 100 µM, the TGI [19] was > 100 µM and the TGI [20] was > 100 µM. For the same compound, the TGI [21] was > 100 µM, the TGI [22] was > 100 µM and the TGI [23] was > 100 µM. The TGI [24] was > 100 µM, the TGI [25] was > 100 µM and the TGI [26] was > 100 µM. The TGI [27] was > 100 µM, the TGI [28] was > 100 µM and the TGI [29] was > 100 µM. For the same compound, the TGI [31] was > 100 µM, the TGI [32] was > 100 µM and the TGI [33] was > 100 µM. The TGI [34] was > 100 µM, the TGI [35] was > 100 µM and the TGI [36] was > 100 µM. The TGI [37] was > 100 µM, the TGI [38] was > 100 µM and the TGI [39] was > 100 µM. The TGI [40] was > 100 µM, the TGI [41] was > 100 µM and the TGI [42] was > 100 µM. For the same compound, the TGI [43] was > 100 µM, the TGI [44] was > 100 µM and the TGI [45] was > 100 µM. The TGI [46] was > 100 µM, the TGI [47] was > 100 µM and the TGI [48] was > 100 µM. The TGI [49] was > 100 µM, the TGI [50] was > 100 µM and the TGI [51] was > 100 µM. For the same compound, the TGI [52] was > 100 µM, the TGI [53] was > 100 µM and the TGI [54] was > 100 µM. For the same compound, the TGI [56] was > 100 µM and the TGI [57] was > 100 µM.
